Test system: grafts derived from mouse iPS cells
Assay: Transplantation experiment of mouse iPS cell-derived dopamine neural progenitor cells into striatum of SD rats (immunohistochemistry of grafts)
Assay type: in vivo
Details: four weeks after transplantation
Experimental: Ten-week-old Sprague-Dawley rats (SD rats, available from Shimizu Laboratory Supplies Co., Ltd.) were handled in accordance with the Guidelines for Animal Experiments of Kyoto University. Each SD rat was anesthetized, and donor cells were transplanted by stereotaxic injection into striatums on both sides. Two cell aggregates (containing 3.1×10^5 cells on average) obtained on day 9 after starting the SFEB were collected in 1 μl of PBS(-) so as to be used as the donor cells for the transplantation in each tract. To the PBS(-), Y-27632 was added at a final concentration of […]. Thereafter, intraperitoneal injection of VPA (150 mg/kg/day), ZNS sodium salt (30 mg/kg/day), E2 (80 μM/kg/day) or a saline was conducted from two days before transplanting the donor cells until a day of necropsy. For immunosuppression, cyclosporin A (CsA, manufactured by Wako Pure Chemical Industries, Ltd.) was administered to all the SD rats at a daily dose of 10 mg/kg. Four weeks after the transplantation of the donor cells, the brains of the SD rats were washed and fixed by intracardially perfusing 4% paraformaldehyde under deep anesthesia. On the day of necropsy, a blood sample was collected from each SD rat one hour after the final injection of the test compound or CsA. Such a sample was sent to SRL, Inc. (Tokyo, Japan) where the blood concentration of the administered drug (test compound) was measured.
In an in vitro experiment, a cell aggregate treated with any of the above-described test compounds on day 14 after starting the SFEB was fixed with 4% paraformaldehyde. Thereafter, the fixed cell aggregate was frozen and sliced into thin sections each having a thickness of 10 μM by using a microtome for immunocytochemistry. On the other hand, in an in vivo experiment (transplantation experiment), the brain of a SD rat or a SCID rat was taken out after the transplantation experiment to be fixed again with 4% paraformaldehyde for 2 days. Thereafter, the fixed brain of the SD rat or SCID rat was cryopreserved in 30% sucrose for 3 days, frozen, and sliced into thin sections each having a thickness of 40 μM for immunohistochemistry. The frozen sections of the sphere (spherical cell mass) and the brain were subjected to a permeabilization and blocking treatment in PBS(-) for 1 hour at room temperature to be used as samples. The PBS(-) contained 0.3% Triton-X and 2% donkey serum. Thereafter, each of the sections was incubated overnight together with a primary antibody at 4° C. Primary antibodies used in this example are a rabbit anti-tyrosine hydroxylase antibody (dilution rate of 1:400, TH; manufactured by Millipore), a mouse anti-TH antibody (dilution rate of 1:200, manufactured by Millipore), a sheep anti-TH antibody (dilution rate of 1:400, manufactured by Millipore), a mouse anti-Tubβ3 antibody (dilution rate of 1:1000, Tuj1; manufactured by Covance Inc.), a rat anti-NURR1 antibody (dilution rate of 1:1000, KAN Research Institute, Inc., Kobe, Japan), a rabbit anti-Ki67 antibody (dilution rate of 1:1000, manufactured by Novocastra: NCL-Ki67p), a rabbit anti-caspase 3 antibody (dilution rate of 1:500, manufactured by Santa Cruz Biotechnology, Inc.), a rat anti-M2M6 antibody (dilution rate of 1:50, manufactured by Developmental Study Hybridoma Bank), a mouse anti-Nestin antibody (dilution rate of 1:50; manufactured by Millipore), a rabbit anti-Pitx3 antibody (dilution rate of 1:500; manufactured by Chemicon International Inc.), a goat […] antibody (dilution rate of 1:500, Foxa2; manufactured by Santa Cruz Biotechnology, Inc.), a mouse anti-human Nuclei antibody (dilution rate of 1:1000; manufactured by Millipore), and a mouse anti-NeuN antibody (dilution rate of 1:500, manufactured by Chemicon International Inc.). After washing with PBS (0.05% Tween-20) three times, the resultant sample was incubated with an Alexa Fluor-conjugated secondary antibody for 1 hour at room temperature. […]

Question: With `CCCC(CCC)C(=O)[O-].[Na+]` [VPA, sodium 2-propylpentanoate] as the compound, how does the volume of graft (VPA 150 mg/kg/day i.p., control 9.76±3.19 mm^3, no significant difference) read?
Answer: The volume of graft was 4.33±2.14 mm^3.

Question: What about the “ratio of NeuN+ cells to the number of all the cells in a graft” value (VPA 150 mg/kg/day i.p., control 57.7±9.4%) of the same compound?
Answer: The value was 77.9±5.1%.

Question: What about the “number of TH+ cells in a graft” value (VPA 150 mg/kg/day i.p., control 393±311 cells) of the same compound?
Answer: The value was 1396±864 cells.

Question: What about the “ratio of TH+ cells that were FOXA2+” value (VPA 150 mg/kg/day or ZNS 30 mg/kg/day i.p., control 24.7±9.3%) of the same compound?
Answer: Its value is 81.8±33.6%.

Question: What about the “number of midbrain dopaminergic neurons (TH+ FOXA2+) in a graft” value (VPA 150 mg/kg/day or ZNS 30 mg/kg/day i.p., control 97±76 cells) of the same compound?
Answer: Its value is 984±770 cells.
